Laboratory results as given in patent US10852311B2, “Additive channels” (Emulate Inc., priority 2016, dated 2020).
Structures can show the parent of a compound that is named as a salt. Positions of bridges follow the written chain, without caps; N, C: chain ends. Non-standard residues stand in square brackets, D forms with d. Residues, ends and D or L forms follow the SMILES beside them. hArg = N=C(N)NCCCC[C@H](N)C(=O)O; Mpa = O=C(O)CCS

Columns and labels:
platelets [1] = assay: Vessel-On-Chip blood perfusion, platelet coverage/aggregation by fluorescence imaging; format: cell-based, human
Experimental: At the start of each experiment, two vials of cells were thawed and expanded for 3 days in EGM-2. Cells were gently detached with 0.05% Trypsin (BD Biosciences, 2-4 minutes incubation at room temperature) and 8×10^6 cells/ml were introduced into the ECM-coated microchannels. After incubating for 30 minutes at 37° C., cell attachment to the bottom surface of the chamber was assessed by microscopy. Then, a second flask of HUVECs was trypsinized and used to seed the upper surface of the microfluidic chamber by introducing the cell suspension, inverting the chip, and incubating at 37° C. for 30 minutes. Each microfluidic chamber was gently flushed with EGM-2 twice in order to remove unbound cells, then chips were incubated overnight at 37° C. The next day, chips were connected to a syringe pump (Chemyx Fusion 200) and perfused with EGM-2 for 3 days (30 μL/hr) to provide continuous supply of fresh media. On day 3, medium was switched to EGM-2 with low serum (1% FBS, no VEGF) to promote cell synchronization overnight. On day 4, chips were used for blood perfusion experiments.
Citrated human blood (Research Blood Components, Cambridge, Mass.) was used within 4 hours of a blood draw in order to minimize pre-analytical effects on platelet function. Before every experiment, each one of the endothelialized channels (i.e. microchannels having an endothelial cell layer) was inspected via light microscopy. Samples showing any sign of discontinuity in the endothelium were discarded.
Platelets were labeled with human CD41-PE antibody (10 μL/ml, Invitrogen) directly added to the blood and incubated at room temperature for 5 minutes.
(§1) A medical grade plastic reservoir was mounted on the chip, then 800 μl of the blood sample was pipetted into the reservoir. The chip was perfused with the blood by withdrawing it at a rate of 60 μl/minute using a syringe pump. The citrated blood was re-calcified 2 minutes after the beginning of each experiment by adding 100 μl/ml of a solution containing 100 mM calcium chloride and 75 mM magnesium chloride to the blood to permit calcium- and magnesium-dependent platelet function and coagulation.
(§2) Chips perfused with blood samples were immediately imaged via fluorescence microscopy (Olympus IX83, 10X objective UPLFLN10X2, Circa-Flash4.0 CMOS Camera). Each chamber was inspected along its entire length and 5 images (about […]) were captured from the central area of the chamber. Image processing and quantification was performed with an automatic macro compiled in […] and numerical values corresponding to platelet coverage or fibrin florescence were collected and statistically analyzed in Graphpad Prism V7.
(§3) A percentage of signal coverage (or Platelet coverage) was computed from the binary image as the ratio of bright pixels to the total number of pixels in the image. Image processing and quantification was performed with an automatic macro compiled in ImageJ ire order to ensure unbiased signal measurements. Numerical values corresponding to platelet coverage or fibrin fluorescence (signal intensity) were collected and statistically analyzed in Graphpad Prism V7.

fibrin = assay: Vessel-On-Chip blood perfusion, fibrin deposition by fluorescent fibrinogen imaging; format: cell-based, human
Experimental: as §1
When analyzing the formation of fibrin, 10 μg/ml of fluorescently labeled fibrinogen (Alexa 488, Invitrogen) was also added to the blood. While fluorescent fibrinogen was barely detected as a diffused fluorescence, fibrin deposition on inflamed cells and sparse clots was easily distinguished since fibrin formed filamentous structures produce a signal intensity that is clearly observed above a background threshold.
as §2, §3

re-calcified blood = assay: On-chip anticoagulation of outflowing blood through the anticoagulant port; design: species or system human; conditions: sodium citrate through the anticoagulant port vs chips without anticoagulant port
Text: In one embodiment, the surface area of the vascular compartment of a microfluidic chip used herein is greater in comparison to the original lung-on-a-chip design because the original size was too small for optimal blood component interaction with endothelium. As described herein, a 1 mm wide and 200 μm tall chamber provided an increase in size of the vascular surface area exposed to laminar flow, as compared to an exemplary lung-on-chip. An anticoagulant port, referred to by several names, including but not limited to EDTA input, citrate input, etc., was added near the outflow port of the vascular chamber. Thus two ports (anticoagulant port and vascular outflow i.e. outflow) were linked through a microfluidic channel (dimension of 250 um wide by 100 um height) to allow for perfusion of anticoagulant solution during the experiment. In some embodiments, modifications were made in the […] dimension. The outlet of the chip was connected to a pulling syringe pump with a system of tubing and connectors made of medical grade silicon that excludes any metal components or potential causes of platelet activation. […]

[2] = tested on: thrombin anti-thrombin complex (TAT); assay: Thrombin-anti thrombin (TAT) measurement via ELISA in chip effluent; format: cell-based, human; conditions: for TAT increment: Eptifibatide treatment
Experimental: Thrombin Anti-Thrombin (TAT) levels were analyzed in plasma from blood flowing out of the chip device by removing a sample from the outflow port. Thus TAT levels were evaluated in sample effluents collected from the outflow port of the chip using the Human TAT ELISA Kit (Siemens Healthineers) according to the user manual.
Blood sampled from the Vessel-On-Chip outflow port was analyzed for thrombin anti-thrombin complex (TAT), a factor released upon activation of the coagulation cascade and one of the biomarkers associated with thrombotic events occurring in patients affected with deep vein thrombosis (DVT) or SLE^45,46. TAT is an accepted clinical biomarker for procoagulation^48,49. An enzyme-linked immunosorbent assay (ELISA) was used to quantify the thrombin anti-thrombin complex (TAT).

ICAM1 = ICAM1 immunostaining of endothelium on chip; format: cell-based, human; conditions: TNF-α stimulated endothelium compared to the control
Experimental: In some experiment endothelial cells were stimulate with 50 ng/ml of TNF (Sigma) for 6 hours in order to induce vascular inflammation before blood perfusion.

platelets [3] = assay: Platelet activation quality control by p-selectin expression; format: cell-based, human; conditions: control blood upon activation by ADP
Experimental: To test for a thrombic event, blood was collected from 4 donors, the as blood alone or blood treated with hu5C8 alone (240 μg/mL), sCD40L (10 ng/ml) alone or with combined hu5C8/sCD40L was incubated for 20 minutes at room temperature. Each sample was further incubated for 5 minutes with fluorescent labels for platelets and fibrinogen. As a standard quality control, the control blood was tested for platelet activation using p-selection expression. We confirmed that platelets in control blood were not activated but upon activation by ADP, over 90% of platelet was positive for p-selectin.

platelets [4] = assay: Hu5C8 mediated thrombosis on-chip, FcγRIIa dependence (platelet coverage, fibrin deposition, TAT); format: cell-based, human
Text: Recent studies conducted on humanized mice expressing the human Fcγ receptors (FCGR2A) have shown that this receptor plays a role in thrombosis leading to the IC-mediated toxicity^12,16,21. […] In order to investigate if the IC5c8-induced thrombosis that we observed in our vessel-on-chip system also relies on an Fc-mediated mechanism, we used two different tool molecules: IgG2σ and IV.3 (FIG. 25A). The IgG2σ variant of hu5C8 has an engineered Fc region^48 that eliminates affinity for the FcγRIIa, while the monoclonal antibody IV.3 is a blocking antibody binding to FcγRIIa. […]
Some of the blood samples were treated with IV.3 (1 μg/ml) for 10 minutes to block the FcγRIIa, and then incubated for 20 more minutes with IC5c8. […] We tested 15 donors and all the tested conditions described above were tested in duplicates and analyzed as percentage of platelet coverage based on fluorescence microscopic imaging (FIG. 25B). […]
Blood from several human donors were aliquoted into groups for the following treatments: controls (PBS), sCD40L, combined hu5C8/sCD40L, combined hu5C8 (IgG2σ)/sCD40L combined, and combined hu5C8/sCD40L/IV.3. Each condition was tested with a minimum of 3 donors to a maximum of 15 donors, and all conditions were tested in duplicates and analyzed for platelet coverage (FIG. 25B), fibrin deposition (FIG. 25C), or increased formation of TAT measured in the eluates (FIG. 25D). […]

[5] = hu5C8 240 μg/mL, sCD40L 10 ng/ml, 4 donors, 60 μl/minute about 10 minutes, vs untreated blood
[6] = TNF-α 50 ng/ml 6 hours on endothelium, or sCollagen 10 μg/ml in blood, vs control blood
[7] = Eptifibatide 2 ug/ml, endothelium inflamed with TNF-α, n=4
[8] = Eptifibatide 2 ug/ml, following treatment with sCollagen, n=4
[9] = Eptifibatide 2 ug/ml, samples treated with TNF-α, n=4

Compound: hu5C8: humanized monoclonal IgG1 antibody against CD40L (anti-CD154)
- platelet aggregate formation on the endothelium (platelets [1]; [5]): no significant treatment-related effects
- fibrin deposition on the endothelium (fibrin; [5]): no significant treatment-related effects

Compound: O=C(O)CC(O)(CC(=O)O)C(=O)O [sodium citrate]
- state of blood collected from the effluent (re-calcified blood): soluble (not clotted) blood

Compound: TNF-α
- levels of TAT ([2]; plasma from blood flowing out of the chip, FIG. 22B): significantly increased
- areas of platelet coverage (platelets [1]; [6]): increased
- fibrin signal intensity (fibrin; [6]): increased
- expression of ICAM1 in the endothelium (ICAM1): increased

Compound: Nc1ncnc2c1ncn2[C@@H]1O[C@H](COP(=O)(O)OP(=O)(O)O)[C@@H](O)[C@H]1O [ADP]
- platelet positive for p-selectin (platelets [3]): over 90%

Compound: hu5C8 (IgG2σ): IgG2σ variant of hu5C8 with engineered Fc region that eliminates affinity for FcγRIIa
- signs of thrombosis in any of the endpoints (platelets [4]; combined with sCD40L (IV.3: combined hu5C8/sCD40L/IV.3)): did not show signs of thrombosis
- hu5C8-mediated thrombosis (platelets [4]; preformed IC, IV.3 1 μg/ml 10 minutes, 15 donors): suppressed

Compound: N=C(N)NCCCC[C@@H]1NC(=O)CCSSC[C@@H](C(N)=O)NC(=O)[C@@H]2CCCN2C(=O)[C@H](Cc2c[nH]c3ccccc23)NC(=O)[C@H](CC(=O)O)NC(=O)CNC1=O [Eptifibatide] ([Mpa][hArg]GDWPC-NH2; disulfide 1-7)
- TAT increment ([2]; TNF-α-induced inflammation): did not inhibit
- TAT increment ([2]; sCollagen treatment): entirely suppressed
- platelet aggregation (platelets [1]; [7]): significantly inhibited
- inhibitory effect on platelet aggregation (platelets [1]; [8]): comparatively modest
- platelet adhesion (image analysis) (platelets [1]; [9]): completely inhibited
- fibrin clot formation (fibrin; [7]): significantly inhibited
- inhibitory effect on fibrin clot formation (fibrin; [8]): comparatively modest
- fibrin signal (image analysis) (fibrin; [9]): a significant amount of fibrin signal was still detectable
